PubChem BioAssay (NCI)
Where “and” joins values, the source holds several entries; their conditions need not be identical. Identical values can stand only once.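 Dose response: 5 concentrations. Exposure: 48 h. Format: 96-well plates. Endpoint: linear interpolation; highest concentration if not reached. GI50 marks 50% less growth. TGI: concentration producing complete growth inhibition.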 *1 amine or outer side, *2 acyl side, *3 side chain or, on linkers, in order; H or OH if unused. Where a SMILES comes first, the peptide text is derived from it. Bridges are numbered along the chain shown (N, C = ends). Roman numbers before positions name the chains, in order. [ ]: non-standard residue; d: D form. ξ: configuration not given here. Actinocin(1to9) = Cc1c2oc3c(C)ccc(C(=O)[*:2])c3nc-2c(C(=O)[*:1])c(N)c1=O; Pro(4-oxo) = O=C1CN[C@H](C(=O)O)C1; Thr(3ξ) = CC(O)[C@H](N)C(=O)O; NMeV = CN[C@H](C(=O)O)C(C)C; Sar = CNCC(=O)O

Assays:
Assay in all cases: NCI-60 cell line screen, 48 h
[1] = test system: SF-268 CNS
[2] = test system: MALME-3M melanoma
[3] = test system: COLO 205 colon
[4] = test system: T-47D breast
[5] = test system: NCI-H23 lung
[6] = test system: DU-145 prostate
[7] = test system: MDA-MB-231 breast
[8] = test system: SNB-75 CNS
[9] = test system: HCC-2998 colon
[10] = test system: SK-MEL-5 melanoma
[11] = test system: SN12C renal
[12] = test system: PC-3 prostate
[13] = test system: HOP-92 NSCLC
[14] = test system: MDA-MB-435
[15] = test system: HCT-15 colon
[16] = test system: K-562 leukemia
[17] = test system: NCI/ADR-RES ovarian
[18] = test system: KM12 colon
[19] = test system: IGROV1 ovarian
[20] = test system: OVCAR-5 ovarian
[21] = test system: 786-0 renal
[22] = test system: SF-539 CNS
[23] = test system: SF-295 CNS
[24] = test system: CCRF-CEM leukemia
[25] = test system: HOP-62 NSCLC
[26] = test system: NCI-H460 lung
[27] = test system: TK-10 renal
[28] = test system: OVCAR-3 ovarian
[29] = test system: MOLT-4 leukemia
[30] = test system: SK-MEL-2 melanoma
[31] = test system: OVCAR-4 ovarian
[32] = test system: OVCAR-8 ovarian
[33] = test system: SK-OV-3 ovarian
[34] = test system: UACC-62 melanoma
[35] = test system: HL-60(TB) leukemia
[36] = test system: SW-620 colon
[37] = test system: EKVX NSCLC
[38] = test system: M14 melanoma
[39] = test system: NCI-H522 lung
[40] = test system: MDA-MB-468 breast
[41] = test system: HS 578T breast
[42] = test system: SK-MEL-28 melanoma
[43] = test system: SNB-19 CNS
[44] = test system: SR leukemia
[45] = test system: RPMI-8226 leukemia
[46] = test system: A498 renal
[47] = test system: U251 CNS
[48] = test system: BT-549 breast
[49] = test system: RXF 393 renal

## Cc1c2oc3c(C)ccc(C(=O)N[C@@H]4C(=O)N[C@H](C(C)C)C(=O)N5CCC[C@H]5C(=O)N(C)CC(=O)N(C)[C@@H](C(C)C)C(=O)OC4C)c3nc-2c(C(=O)N[C@@H]2C(=O)N[C@H](C(C)C)C(=O)N3CC(=O)C[C@H]3C(=O)N(C)CC(=O)N(C)[C@@H](C(C)C)C(=O)OC2C)c(N)c1=O (some centres not stated) (I: [Thr(3ξ)][dV][Pro(4-oxo)][Sar][NMeV] / II: [Thr(3ξ)][dV]P[Sar][NMeV]; ester I:1-I:C, II:1-II:C; linker I:N-II:N via Actinocin(1to9))
[1]
  GI50: < 0.01 µM
  TGI: 1.1 µM
[2]
  GI50: < 0.01 µM
  TGI: < 0.01 µM
[3]
  GI50: < 0.01 µM
  TGI: < 0.01 µM
[4]
  GI50: < 0.01 µM
  TGI: < 0.01 µM
[5]
  GI50: < 0.01 µM
  TGI: < 0.01 µM
[6]
  GI50: < 0.01 µM
  TGI: 30.3 µM
[7]
  GI50: < 0.01 µM
  TGI: 0.0167 µM
[8]
  GI50: < 0.01 µM
  TGI: < 0.01 µM
[9]
  GI50: < 0.01 µM
  TGI: < 0.0114 µM
[10]
  GI50: < 0.01 µM
  TGI: < 0.01 µM
[11]
  GI50: < 0.01 µM
  TGI: 0.579 µM
[12]
  GI50: < 0.01 µM
  TGI: 0.294 µM
[13]
  GI50: < 0.01 µM
  TGI: < 0.01 µM
[14]
  GI50: < 0.01 µM
  TGI: < 0.01 µM
[15]
  GI50: < 0.01 µM
  TGI: 10.1 µM
[16]
  GI50: < 0.01 µM
  TGI: 0.163 µM
[17]
  GI50: 0.052 µM
  TGI: 1.06 µM
[18]
  GI50: < 0.01 µM
  TGI: 6.98 µM
[19]
  GI50: < 0.01 µM
  TGI: 4.59 µM
[20]
  GI50: < 0.01 µM
  TGI: 3.2 µM
[21]
  GI50: < 0.01 µM
  TGI: 10.3 µM
[22]
  GI50: < 0.01 µM
  TGI: < 0.01 µM
[23]
  GI50: < 0.01 µM
  TGI: 0.092 µM
[24]
  GI50: < 0.01 µM
  TGI: 0.0352 µM
[25]
  GI50: < 0.01 µM
  TGI: < 0.01 µM
[26]
  GI50: < 0.01 µM
  TGI: 10.3 µM
[27]
  GI50: < 0.01 µM
  TGI: 6.4 µM
[28]
  GI50: < 0.01 µM
  TGI: 1.98 µM
[29]
  GI50: < 0.01 µM
  TGI: 0.0252 µM
[30]
  GI50: < 0.01 µM
  TGI: < 0.01 µM
[31]
  GI50: < 0.01 µM
  TGI: 4.6 µM
[32]
  GI50: < 0.01 µM
  TGI: 17.7 µM
[33]
  GI50: < 0.01 µM
  TGI: 0.49 µM
[34]
  GI50: < 0.01 µM
  TGI: < 0.01 µM
[35]
  GI50: < 0.01 µM
  TGI: 0.0483 µM
[36]
  GI50: < 0.01 µM
  TGI: 11.3 µM
[37]
  GI50: < 0.01 µM
  TGI: < 0.0332 µM
[38]
  GI50: < 0.01 µM
  TGI: < 0.0215 µM
[39]
  GI50: < 0.01 µM
  TGI: < 0.01 µM
[40]
  GI50: < 0.01 µM
  TGI: < 0.01 µM
[41]
  GI50: < 0.01 µM
  TGI: 0.197 µM
[42]
  GI50: < 0.01 µM
  TGI: < 0.01 µM
[43]
  GI50: < 0.01 µM
  TGI: 0.172 µM
[44]
  GI50: < 0.01 µM
  TGI: < 0.0104 µM
[45]
  GI50: < 0.01 µM
  TGI: 0.0147 µM
[46]
  GI50: < 0.01 µM
  TGI: < 0.01 µM
[47]
  GI50: < 0.01 µM
  TGI: 5.75 µM
[48]
  GI50: < 0.01 µM
  TGI: < 0.01 µM
[49]
  GI50: < 0.01 µM
  TGI: < 0.01 µM

## CCCCCCCCCCCC[n+]1ccccc1 (tested in a mixture with another compound)
[40]
  GI50: 0.246 µM
  TGI: 3.36 µM

## Cn1c([N+](=O)[O-])cnc1/C=C1\Oc2cc(Cl)ccc2C1=O
[40]
  GI50: 3.15 µM
  TGI: 15.2 µM

## Cc1nc(Nc2n[nH]c3c2CN(C(=O)N[C@H](CN(C)C)c2ccccc2)C3(C)C)c2sccc2n1
[40]
  GI50: 0.247 µM and 0.226 µM
  TGI: 2.26 µM and 2.47 µM

## CCN(CC)CCNC(=O)c1cn2ncnc(Oc3ccc(NC(=O)Nc4ccc(Cl)c(C(F)(F)F)c4)c(F)c3)c2c1C
[40]
  GI50: 1.57 µM
  TGI: 3.2 µM

## O=C(O)CCC(NC(=S)S)C(=O)O.[Na+].[Zn+2] (configuration not stated)
[40]
  GI50: > 50 µM
  TGI: > 50 µM

## O=S1(=O)NCCCN1CCNc1nccc(-c2c(-c3cccc(O)c3)nc3sccn23)n1
[40]
  GI50: 13.3 µM
  TGI: > 86.1 µM

## COCCOCCOCc1n(Cc2ccc3ccccc3n2)c2ccccc2[n+]1Cc1ccc2ccccc2c1
[40]
  GI50: 0.259 µM
  TGI: 0.996 µM

## CCC1=C[C@@H]2CN(C1)Cc1c([nH]c3ccccc13)[C@@](C(=O)OC)(c1cc3c(cc1OC)N(C)[C@H]1[C@@](O)(C(=O)OC)[C@H](OC(C)=O)[C@]4(CC)[C@@H]5C[C@@H]5CN5CC[C@]31[C@@H]54)C2
[40]
  GI50: < 0.005 µM
  TGI: 5.74 µM

## COc1ccccc1/C=C/C(=O)/C=C/c1ccccc1O
[40]
  GI50: 0.53 µM
  TGI: 2.06 µM

## Cn1c(/C(C#N)=C/c2ccc3ccccc3c2)cc2ccccc21
[40]
  GI50: 0.422 µM
  TGI: > 100 µM

## C=C1CC2(OC1=O)C(=O)N(CCCN1C(=O)C3(CC(=C)C(=O)O3)c3ccccc31)c1ccccc12 (configuration not stated)
[40]
  GI50: 1.28 µM
  TGI: 3.25 µM

## Cn1cc(-c2csc(-c3cn(C)c4ccccc34)n2)c2cnccc21
[40]
  GI50: 0.265 µM
  TGI: 0.866 µM
